The results in this text go back to patent EP4682145A1, “BENZOHETEROCYCLIC COMPOUND, AND PREPARATION METHOD THEREFOR AND USE THEREOF” (Cascade Pharmaceuticals, Inc., priority 2023, dated 2024).

The experiment concerns the target T1, human FFAR1 (GPR40) (Homo sapiens, UniProt O14842).
T1 construct: Flag; expressed in transfected cells; host or cells: HEK293T
Description: NFAT-RE-based reporter gene activity assay (Dual-Glo luciferase) for GPR40 agonistic activity in co-transfected HEK293T cells. The format is cell-based. The following applies: 4-hour treatment; for Efficacy (%): class symbols. From the text: The pcDNA3.0-flag-FFAR1 (GPR40) plasmid was constructed using conventional molecular cloning methods. The main steps were as follows: The full-length cDNA sequence of human FFAR1 (GPR40) (NM_005303.3) was inserted into the HindIII and XbaI restriction sites of the pcDNA3.0 vector via PCR technology, resulting in the pcDNA3.0-flag-FFAR1 (GPR40) plasmid; pGL4.30 [luc2P NFAT-RE] (# E8481) and pRL-TK (#E2241) plasmids were both purchased from Promega; the plasmids were transformed into DH5α E. coli using the CaCl2 method, further cultured and amplified, and then purified using a plasmid extraction kit (TIANGEN, # DP117) to obtain the corresponding plasmid DNA.
HEK293T cells were seeded in a 96-well plate at a density of 1 × 10^4/well one day prior to plasmid transfection. Cell transfection was performed according to the instructions of the transfection reagent FuGENE® HD (Promega, # E2311). The main steps were as follows: Taking one well as an example, plasmids pcDNA3.0-flag-FFAR1 (GPR40), pGL4.30 [luc2P NFAT-RE], and pRL-TK were added at ratios of 50 ng, 50 ng, and 5 ng, respectively, into 10 µL of Opti-MEM™ I medium (Gibco, #11058021) and mixed thoroughly; then, 0.2 µL of FuGENE® HD was added, mixed thoroughly, and allowed to stand at room temperature for 5 minutes; finally, this 10 µL mixture was added to the cell well containing 100 µL of culture medium. 24 hours after co-transfection, the compounds were serially diluted at half-logarithmic intervals with 1 µM as the highest concentration, resulting in 10 concentration gradients, which were added to the cell culture medium for a 4-hour treatment.
After 4 hours of compound treatment, the cells were assayed according to the instructions of the Dual-Glo® Luciferase Assay System (Promega, # E2940). The main steps were as follows: 50 µL of culture medium was aspirated from each well and discarded, followed by the addition of 50 µL of Dual-Glo® Luciferase Reagent, and the mixture was shaken at room temperature for 10 minutes. Then, 80 µL of the lysate reaction solution was transferred to a white opaque optiPlate-96 well plate, and the luminescence signal of Firefly luciferase (Firefly-Luc) was measured using an MD i3x multifunctional microplate reader. Subsequently, 40 µL of Dual-Glo® Stop & Glo® Reagent was added, and the mixture was shaken at room temperature for 10 minutes. Finally, the luminescence signal of Renilla luciferase (Renilla-Luc) was measured using the MD i3x multifunctional microplate reader. The ratio of Firefly-Luc/Renilla-Luc was used as the compound's agonistic activity toward GPR40, and normalization was performed using the ratio of the solvent DMSO group. A dose-response curve was fitted using a four-parameter model with GraphPad Prism 8.0 software to calculate the EC50 value.
A general note: In a reporter assay the amount or activity of a reporter protein is the signal.

T1 sequence (O14842 whole entry): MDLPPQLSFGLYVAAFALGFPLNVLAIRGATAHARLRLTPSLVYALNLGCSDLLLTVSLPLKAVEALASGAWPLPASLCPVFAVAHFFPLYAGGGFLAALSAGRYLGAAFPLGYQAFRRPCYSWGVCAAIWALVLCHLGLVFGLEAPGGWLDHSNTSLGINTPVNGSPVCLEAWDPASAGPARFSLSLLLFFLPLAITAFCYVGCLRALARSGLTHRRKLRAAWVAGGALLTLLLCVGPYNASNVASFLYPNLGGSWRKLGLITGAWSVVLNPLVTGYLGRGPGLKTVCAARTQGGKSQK

One may read the EC50 as the concentration at which the effect is half-maximal. As to `COc1cccc(N2CCC(c3oc4cc([C@@H](CC(=O)O)C5CC5)ccc4c3CN(C)CC(C)(C)C)CC2)c1` [Compound 438], the half-maximal effective concentration (EC50) was in the range of 10 to 100 nM and the “Efficacy (%)” value is on record as “†† (150 ≥ Efficacy (%) > 100)”.

Regarding `CCC(c1ccccc1OC)N1CCC(c2oc3cc(C(CC(=O)O)C4CC4)ccc3c2C(=O)Nc2ccccc2F)CC1` (stereo not shown) [Compound 326], the EC50 lay within 100 to 500 nM and the “Efficacy (%)” value was “†† (150 ≥ Efficacy (%) > 100)”.

Turning to `COc1cccc(N2CCC(c3oc4cc(C(CC(=O)O)C5CC5)ccc4c3-c3nnc(C(C)(C)CN4CCCCC4)o3)CC2)c1` (stereo not shown) [Compound 137], the half-maximal effective concentration (EC50) is 10 to 100 nM and the “Efficacy (%)” value is reported as “††† (Efficacy (%) > 150)”.

For `CCn1cc(-c2c(C3CCN(c4cccc(OC)c4)CC3)oc3cc(C(CC(=O)O)C4CC4)ccc23)cn1` (stereo not shown) [Compound 37], the concentration for a half-maximal effect (EC50) is 100 to 500 nM and the “Efficacy (%)” value was “†† (150 ≥ Efficacy (%) > 100)”.

`Cc1ccc(N2CCC(c3oc4cc(C(CC(=O)O)C5CC5)ccc4c3-c3cccc(C(C)(C)C)c3)CC2)cc1` (stereo not shown) [Compound 3]: the EC50 fell in the range of 100 to 500 nM and the “Efficacy (%)” value is listed as “†† (150 ≥ Efficacy (%) > 100)”.

Consider `COc1cccc(N2CCC(c3oc4cc([C@@H](CC(=O)O)C5CC5)ccc4c3C(=O)Nc3cc(-c4ccccc4)ccc3Cl)CC2)c1` [Compound 280], for which the EC50 lay within 100 to 500 nM and the “Efficacy (%)” value is listed as “†† (150 ≥ Efficacy (%) > 100)”.

Consider `COc1cccc(N2CCC(c3oc4cc(C(CC(=O)O)C5CC5)ccc4c3-c3cnn(C(C)(C)C#N)c3)CC2)c1` (stereo not shown) [Compound 127], for which the EC50 lay within 100 to 500 nM and the “Efficacy (%)” value is “††† (Efficacy (%) > 150)”.

Turning to `COc1ccc(F)c(N2CCC(c3oc4cc(C(CC(=O)O)C5CC5)ccc4c3CC3=CCCC3)CC2)c1` (stereo not shown) [Compound 383], the concentration giving a half-maximal response (EC50) is 100 to 500 nM and the “Efficacy (%)” value is listed as “††† (Efficacy (%) > 150)”.

For the compound `COc1cccc(N2CCC(c3oc4cc([C@@H](CC(=O)O)C5CC5)ccc4c3C(=O)Nc3cc(F)ccc3Cl)CC2)c1` [Compound 266], the 50% effective concentration (EC50) was under 10 nM and the “Efficacy (%)” value is on record as “††††”.

Take `COc1cccc(N2CCC(c3oc4cc([C@@H](CC(=O)O)C5CC5)ccc4c3-c3cc(C(C)(C)C)no3)CC2)c1` [Compound 116]: the concentration for a half-maximal effect (EC50) was at most 10 nM and the “Efficacy (%)” value is “†† (150 ≥ Efficacy (%) > 100)”.

For the compound `COc1ccc(F)c(N2CCC(c3oc4cc(C(CC(=O)O)C5CC5)ccc4c3-c3ccc(S(=O)(=O)C(C)C)cc3)CC2)c1` (stereo not shown) [Compound 183], the concentration giving a half-maximal response (EC50) fell in the range of 100 to 500 nM and the “Efficacy (%)” value is recorded as “†† (150 ≥ Efficacy (%) > 100)”.

On to `COc1ccc(Cl)c(N2CCC(c3oc4cc(C(CC(=O)O)C5CC5)ccc4c3-c3cnn(C(C)(C)C)c3)CC2)c1` (stereo not shown) [Compound 90], for which the concentration giving a half-maximal response (EC50) was in the range of 100 to 500 nM and the “Efficacy (%)” value is “† (100 ≥ Efficacy (%) > 50)”.

Regarding `CCC(Cc1ccc2c(-c3cnn(C(C)(C)C)c3)c(C3CCN(c4cccc(OC)c4)CC3)oc2c1)C(=O)O` (stereo not shown) [Compound 61], the half-maximal effective concentration (EC50) is 100 to 500 nM and the “Efficacy (%)” value is on record as “†† (150 ≥ Efficacy (%) > 100)”.

Turning to `COc1cccc(N2CCC(c3oc4cc([C@@H](CC(=O)O)C5CC5)ccc4c3C(OCC(C)C)c3ccccc3)CC2)c1` (stereo partly shown) [Compound 426], the EC50 was 10 to 100 nM and the “Efficacy (%)” value is recorded as “††† (Efficacy (%) > 150)”.

`COc1ccccc1N1CCC(c2oc3cc(C(CC(=O)O)C4CC4)ccc3c2-c2cccc(C(C)(C)C)c2)CC1` (stereo not shown) [Compound 21]: the concentration for a half-maximal effect (EC50) lay in the range of 100 to 500 nM and the “Efficacy (%)” value is listed as “†† (150 ≥ Efficacy (%) > 100)”.

On to `COc1ccc(C(=O)N(C)c2ccccc2)c(N2CCC(c3oc4cc([C@@H](CC(=O)O)C5CC5)ccc4c3-c3cnn(C(C)(C)C)c3)CC2)c1` [Compound 93], for which the EC50 is 100 to 500 nM and the “Efficacy (%)” value is “††† (Efficacy (%) > 150)”.

On to `COc1cccc(N2CCC(c3oc4cc(C(CC(=O)O)C5CC5)ccc4c3C(=O)Nc3cccc(N(C)C)c3)CC2)c1` (stereo not shown) [Compound 246], for which the EC50 lay in the range of 100 to 500 nM and the “Efficacy (%)” value is recorded as “†† (150 ≥ Efficacy (%) > 100)”.

As for `COc1cccc(N2CCC(c3oc4cc(C(CC(=O)O)C5CC5)ccc4c3-c3ncc(C(C)C)s3)CC2)c1` (stereo not shown) [Compound 111], the concentration giving a half-maximal response (EC50) was 10 to 100 nM and the “Efficacy (%)” value is recorded as “††† (Efficacy (%) > 150)”.

On to `COc1ccc(F)c(N2CCC(c3cc4ccc(C(CC(=O)O)C5CC5)cc4o3)CC2)c1` (stereo not shown) [Comparative Example 1, reference compound], for which the EC50 was over 1000 nM and the “Efficacy (%)” value is “NA (NA indicates no activity)”.

As to `COc1cccc(N2CCC(c3oc4cc(C(CC(=O)O)C5CC5)ccc4c3/C=C/C3CC3)CC2)c1` (stereo not shown) [Compound 364], the concentration for a half-maximal effect (EC50) was in the range of 100 to 500 nM and the “Efficacy (%)” value is reported as “†† (150 ≥ Efficacy (%) > 100)”.

For `COc1cccc(N2CCC(c3oc4cc(C(CC(=O)O)C5CC5)ccc4c3C(=O)NC3CCCCC3)CC2)c1` (stereo not shown) [Compound 344], the 50% effective concentration (EC50) lay within 100 to 500 nM and the “Efficacy (%)” value is “†† (150 ≥ Efficacy (%) > 100)”.

Consider `CC(C)(C)c1cccc(-c2c(C3CCN(c4ccccc4OC(F)(F)F)CC3)oc3cc(C(CC(=O)O)C4CC4)ccc23)c1` (stereo not shown) [Compound 23], for which the half-maximal effective concentration (EC50) lay in the range of 100 to 500 nM and the “Efficacy (%)” value is “†† (150 ≥ Efficacy (%) > 100)”.

Regarding `COc1cccc(N2CCC(c3oc4cc([C@H](C5CC5)C(F)C(=O)O)ccc4c3-c3cnn(C(C)(C)C)c3)CC2)c1` (stereo partly shown) [Compound 54], the concentration giving a half-maximal response (EC50) fell in the range of 10 to 100 nM and the “Efficacy (%)” value is on record as “†† (150 ≥ Efficacy (%) > 100)”.

As to `CC(C)(C)c1cccc(-c2c(C3CCN(c4ccccc4Cl)CC3)oc3cc(C(CC(=O)O)C4CC4)ccc23)c1` (stereo not shown) [Compound 22], the EC50 lay within 100 to 500 nM and the “Efficacy (%)” value is “†† (150 ≥ Efficacy (%) > 100)”.

Take `Cc1cccc(-c2c(C3CCN(c4ccc5c(c4)OCO5)CC3)oc3cc(C(CC(=O)O)C4CC4)ccc23)c1` (stereo not shown) [Compound 210]: the EC50 is 100 to 500 nM and the “Efficacy (%)” value was “†† (150 ≥ Efficacy (%) > 100)”.

For the compound `COc1cccc(N2CCC(c3oc4cc([C@@H](CC(=O)O)C5CC5)ccc4c3-c3csc(C(C)C)n3)CC2)c1` [Compound 107], the concentration for a half-maximal effect (EC50) is 100 to 500 nM and the “Efficacy (%)” value is reported as “††† (Efficacy (%) > 150)”.

As for `COc1cccc(N2CCC(c3oc4cc(C(CC(=O)O)C5CC5)ccc4c3C(=O)Nc3ccc(F)cc3F)CC2)c1` (stereo not shown) [Compound 255], the concentration for a half-maximal effect (EC50) lay in the range of 100 to 500 nM and the “Efficacy (%)” value is reported as “†† (150 ≥ Efficacy (%) > 100)”.

For the compound `CCCCCC(C)(C)c1nnc(-c2c(C3CCN(c4cccc(OC)c4)CC3)oc3cc(C(CC(=O)O)C4CC4)ccc23)o1` (stereo not shown) [Compound 131], the EC50 lay in the range of 10 to 100 nM and the “Efficacy (%)” value is given as “†† (150 ≥ Efficacy (%) > 100)”.

Regarding `COc1cccc(N2CCC(c3oc4cc(C(CC(=O)O)C5CC5)ccc4c3C(=O)Nc3cc(-c4ccccc4)nn3C)CC2)c1` (stereo not shown) [Compound 302], the EC50 fell in the range of 100 to 500 nM and the “Efficacy (%)” value is “† (100 ≥ Efficacy (%) > 50)”.

Turning to `CNC(=O)C(C)(C)n1cc(-c2c(C3CCN(c4cccc(OC)c4)CC3)oc3cc(C(CC(=O)O)C4CC4)ccc23)cn1` (stereo not shown) [Compound 52], the EC50 fell in the range of 100 to 500 nM and the “Efficacy (%)” value was “† (100 ≥ Efficacy (%) > 50)”.

Consider `CC(C)(C)c1ccc(-c2c(C3CCN(c4ccc5c(c4)OCCO5)CC3)oc3cc(C(CC(=O)O)C4CC4)ccc23)cc1` (stereo not shown) [Compound 215], for which the EC50 was 100 to 500 nM and the “Efficacy (%)” value is listed as “†† (150 ≥ Efficacy (%) > 100)”.

For the compound `CCCOC(C)c1c(C2CCN(c3cccc(OC)c3)CC2)oc2cc([C@@H](CC(=O)O)C3CC3)ccc12` (stereo partly shown) [Compound 408], the EC50 fell in the range of 100 to 500 nM and the “Efficacy (%)” value was “††† (Efficacy (%) > 150)”.

Turning to `COc1cccc(N2CCC(c3oc4cc(C(CC(=O)O)C5CC5)ccc4c3C(=O)Nc3ccccc3C(F)(F)F)CC2)c1` (stereo not shown) [Compound 237], the EC50 was in the range of 10 to 100 nM and the “Efficacy (%)” value is “†† (150 ≥ Efficacy (%) > 100)”.

`CC(C)(C)n1cc(-c2c(C3CCN(c4ccccc4)CC3)oc3cc(C(CC(=O)O)C4CC4)ccc23)cn1` (stereo not shown) [Compound 39]: the EC50 lay within 100 to 500 nM and the “Efficacy (%)” value is listed as “††† (Efficacy (%) > 150)”.

Regarding `CCc1cccc(N2CCC(c3oc4cc(C(CC(=O)O)C5CC5)ccc4c3-c3ccc(C(C)(C)C)cc3)CC2)c1` (stereo not shown) [Compound 6], the EC50 was over 500 nM and the “Efficacy (%)” value was “†† (150 ≥ Efficacy (%) > 100)”.
